Test results taken from US12568972B2, “Pyridazinol compounds and derivatives, preparation methods, herbicidal compositions and applications thereof” (Qingdao Kingagroot Chemical Compound Co., Ltd., priority 2018, dated 2026).

What follows are compounds tested on Rorippa indica (assay: Post-emergence test, weed control effect). Conditions: Dose 3000 g/ha, after 3 weeks.
Type: in vivo
Method in brief: (§1)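 Activity is expressed as a level from 0 (no effect) to 10 (plant dead), each step matching a further 10% fresh-weight inhibition, assessed 3 weeks post-treatment. Treatment: spray at 2-3 leaf stage of pot-grown plants, compound in acetone, Tween-80 and water with 80% vegetable oil methyl ester synergist at 1500 g/ha.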
For `Oc1cc(C(F)(F)F)nnc1-c1ccccc1C(F)(F)F` [Compound 737], the “weed control effect (activity level), Rorippa indica” value was 10.
In the case of `Fc1ccc(-c2nnc(C(F)(F)F)cc2OCc2ccccc2)cc1` [Compound 1-209], the “weed control effect, Rorippa indica (activity level)” value (shortened to “weed control effect, Rorippa indica”) is reported as 10.
With `Oc1cc(C(F)(F)F)nnc1-c1cc2ccccc2s1` [Compound 594] the “weed control effect (activity level), Rorippa indica” value was 10.
For `Cc1n[nH]c(C)c1-c1nnc(C(F)(F)F)cc1O` [Compound 543], the “weed control effect (activity level), Rorippa indica” value was 10.
`O=C(/C=C\c1ccccc1)Oc1cc(C(F)(F)F)nnc1-c1ccc(Cl)cc1` [Compound 1-96] was tested, and the “weed control effect, Rorippa indica” value was 10.
`CCCCCC/C(C)=N\Oc1cc(C(F)(F)F)nnc1-c1ccc(Cl)cc1Cl` [Compound 1-176] was tested, and the “weed control effect, Rorippa indica” value was 10.
`Oc1cc(C(F)(F)F)nnc1-c1cnccc1I` [Compound 972] was tested, and the “weed control effect (activity level), Rorippa indica” value was 10.
With `N#Cc1ccc(-c2nnc(C(F)(F)F)cc2O)cn1` [Compound 983] the “weed control effect (activity level), Rorippa indica” value was 10.
In the case of `CC(C)OC(=O)OC(C)Oc1cc(C(F)(F)F)nnc1-c1ccccc1` (stereo not drawn) [Compound 1-240], the “weed control effect, Rorippa indica” value is reported as 10.
`O=C(Oc1cc(C(F)(F)F)nnc1-c1ccc(F)c(F)c1)c1ccccc1` [Compound 1-79] was tested, and the “weed control effect, Rorippa indica” value was 10.

Same assay, conditions: dose 1000 g/ha, after 3 weeks
For `Oc1cc(C(F)(F)F)nnc1-c1c(F)c(F)c(F)c(F)c1F` [Compound 55], the “weed control effect (activity level), Rorippa indica” value was 10.
In the case of `Oc1cc(C(F)(F)F)nnc1-c1c(F)cc(F)cc1F` [Compound 52], the “weed control effect (activity level), Rorippa indica” value is reported as 10.
In the case of `Oc1cc(C(F)(F)F)nnc1-c1ccc(I)cc1` [Compound 33], the “weed control effect (activity level), Rorippa indica” value is reported as 10.
With `CSc1cccc(-c2nnc(C(F)(F)F)cc2O)c1` [Compound 95] the “weed control effect (activity level), Rorippa indica” value was 10.
With `Oc1cc(C(F)(F)F)nnc1-c1cccc(Br)c1` [Compound 31] the “weed control effect (activity level), Rorippa indica” value was 10.

Same assay, conditions: dose 2000 g/ha, after 3 weeks
With `N#Cc1ccc(-c2nnc(C(F)(F)F)cc2O)cn1` [Compound 212] the “weed control effect (activity level), Rorippa indica” value was 10.
For `Cc1ccc(-c2nnc(C(F)(F)F)cc2O)c(C)c1` [Compound 77], the “weed control effect (activity level), Rorippa indica” value was 10.
With `Oc1cc(C(F)(F)F)nnc1-c1cc(OC(F)F)c(Cl)cc1Cl` [Compound 165] the “weed control effect (activity level), Rorippa indica” value was 10.

These compounds were tested on Amaranthus retroflexus (assay: Post-emergence test, weed control effect). Conditions: Dose 3000 g/ha, after 3 weeks.
Type: in vivo
Method in brief: as §1
`Oc1cc(C(F)(F)F)nnc1-c1ccccc1C(F)(F)F` [Compound 737] was tested, and the “weed control effect (activity level), Amaranthus retroflexus” value was 10.
`Fc1ccc(-c2nnc(C(F)(F)F)cc2OCc2ccccc2)cc1` [Compound 1-209] was tested, and the “weed control effect, Amaranthus retroflexus (activity level)” value was 10.
For `Oc1cc(C(F)(F)F)nnc1-c1cc2ccccc2s1` [Compound 594], the “weed control effect (activity level), Amaranthus retroflexus” value was 10.
With `Cc1n[nH]c(C)c1-c1nnc(C(F)(F)F)cc1O` [Compound 543] the “weed control effect (activity level), Amaranthus retroflexus” value was 10.
For `O=C(/C=C\c1ccccc1)Oc1cc(C(F)(F)F)nnc1-c1ccc(Cl)cc1` [Compound 1-96], the “weed control effect, Amaranthus retroflexus (activity level)” value was 10.
With `CCCCCC/C(C)=N\Oc1cc(C(F)(F)F)nnc1-c1ccc(Cl)cc1Cl` [Compound 1-176] the “weed control effect, Amaranthus retroflexus (activity level)” value was 10.
In the case of `Oc1cc(C(F)(F)F)nnc1-c1cnccc1I` [Compound 972], the “weed control effect (activity level), Amaranthus retroflexus” value is reported as 10.
With `N#Cc1ccc(-c2nnc(C(F)(F)F)cc2O)cn1` [Compound 983] the “weed control effect (activity level), Amaranthus retroflexus” value was 10.
`CC(C)OC(=O)OC(C)Oc1cc(C(F)(F)F)nnc1-c1ccccc1` (stereo not drawn) [Compound 1-240] was tested, and the “weed control effect, Amaranthus retroflexus (activity level)” value was 10.
With `O=C(Oc1cc(C(F)(F)F)nnc1-c1ccc(F)c(F)c1)c1ccccc1` [Compound 1-79] the “weed control effect, Amaranthus retroflexus (activity level)” value was 10.

Same assay, conditions: dose 1000 g/ha, after 3 weeks
In the case of `Oc1cc(C(F)(F)F)nnc1-c1c(F)c(F)c(F)c(F)c1F` [Compound 55], the “weed control effect (activity level), Amaranthus retroflexus” value is reported as 10.
In the case of `Oc1cc(C(F)(F)F)nnc1-c1c(F)cc(F)cc1F` [Compound 52], the “weed control effect (activity level), Amaranthus retroflexus” value is reported as 10.
With `Oc1cc(C(F)(F)F)nnc1-c1ccc(I)cc1` [Compound 33] the “weed control effect (activity level), Amaranthus retroflexus” value was 10.
With `CSc1cccc(-c2nnc(C(F)(F)F)cc2O)c1` [Compound 95] the “weed control effect (activity level), Amaranthus retroflexus” value was 10.
For `Oc1cc(C(F)(F)F)nnc1-c1cccc(Br)c1` [Compound 31], the “weed control effect (activity level), Amaranthus retroflexus” value was 10.

Same assay, conditions: dose 2000 g/ha, after 3 weeks
With `N#Cc1ccc(-c2nnc(C(F)(F)F)cc2O)cn1` [Compound 212] the “weed control effect (activity level), Amaranthus retroflexus” value was 10.
For `Cc1ccc(-c2nnc(C(F)(F)F)cc2O)c(C)c1` [Compound 77], the “weed control effect (activity level), Amaranthus retroflexus” value was 10.
In the case of `Oc1cc(C(F)(F)F)nnc1-c1cc(OC(F)F)c(Cl)cc1Cl` [Compound 165], the “weed control effect (activity level), Amaranthus retroflexus” value is reported as 10.

These compounds were tested on Chenopodiaceae (assay: Post-emergence test, weed control effect). Conditions: Dose 3000 g/ha, after 3 weeks.
Type: in vivo
Method in brief: as §1
For `Oc1cc(C(F)(F)F)nnc1-c1ccccc1C(F)(F)F` [Compound 737], the “weed control effect (activity level), Chenopodiaceae” value was 10.
In the case of `Fc1ccc(-c2nnc(C(F)(F)F)cc2OCc2ccccc2)cc1` [Compound 1-209], the “weed control effect, Chenopodiaceae (activity level)” value (shortened to “weed control effect, Chenopodiaceae”) is reported as 10.
In the case of `Oc1cc(C(F)(F)F)nnc1-c1cc2ccccc2s1` [Compound 594], the “weed control effect (activity level), Chenopodiaceae” value is reported as 10.
In the case of `Cc1n[nH]c(C)c1-c1nnc(C(F)(F)F)cc1O` [Compound 543], the “weed control effect (activity level), Chenopodiaceae” value is reported as 10.
In the case of `O=C(/C=C\c1ccccc1)Oc1cc(C(F)(F)F)nnc1-c1ccc(Cl)cc1` [Compound 1-96], the “weed control effect, Chenopodiaceae” value is reported as 10.
`CCCCCC/C(C)=N\Oc1cc(C(F)(F)F)nnc1-c1ccc(Cl)cc1Cl` [Compound 1-176] was tested, and the “weed control effect, Chenopodiaceae” value was 10.
In the case of `Oc1cc(C(F)(F)F)nnc1-c1cnccc1I` [Compound 972], the “weed control effect (activity level), Chenopodiaceae” value is reported as 10.
`N#Cc1ccc(-c2nnc(C(F)(F)F)cc2O)cn1` [Compound 983] was tested, and the “weed control effect (activity level), Chenopodiaceae” value was 10.
For `CC(C)OC(=O)OC(C)Oc1cc(C(F)(F)F)nnc1-c1ccccc1` (stereo not drawn) [Compound 1-240], the “weed control effect, Chenopodiaceae” value was 10.
In the case of `O=C(Oc1cc(C(F)(F)F)nnc1-c1ccc(F)c(F)c1)c1ccccc1` [Compound 1-79], the “weed control effect, Chenopodiaceae” value is reported as 10.

Same assay, conditions: dose 1000 g/ha, after 3 weeks
With `Oc1cc(C(F)(F)F)nnc1-c1c(F)c(F)c(F)c(F)c1F` [Compound 55] the “weed control effect (activity level), Chenopodiaceae” value was 10.
In the case of `Oc1cc(C(F)(F)F)nnc1-c1c(F)cc(F)cc1F` [Compound 52], the “weed control effect (activity level), Chenopodiaceae” value is reported as 10.
With `Oc1cc(C(F)(F)F)nnc1-c1ccc(I)cc1` [Compound 33] the “weed control effect (activity level), Chenopodiaceae” value was 10.
For `CSc1cccc(-c2nnc(C(F)(F)F)cc2O)c1` [Compound 95], the “weed control effect (activity level), Chenopodiaceae” value was 10.
`Oc1cc(C(F)(F)F)nnc1-c1cccc(Br)c1` [Compound 31] was tested, and the “weed control effect (activity level), Chenopodiaceae” value was 10.

Same assay, conditions: dose 2000 g/ha, after 3 weeks
For `N#Cc1ccc(-c2nnc(C(F)(F)F)cc2O)cn1` [Compound 212], the “weed control effect (activity level), Chenopodiaceae” value was 10.
For `Cc1ccc(-c2nnc(C(F)(F)F)cc2O)c(C)c1` [Compound 77], the “weed control effect (activity level), Chenopodiaceae” value was 10.
For `Oc1cc(C(F)(F)F)nnc1-c1cc(OC(F)F)c(Cl)cc1Cl` [Compound 165], the “weed control effect (activity level), Chenopodiaceae” value was 10.

What follows are compounds tested on Veronica polita (assay: Post-emergence test, weed control effect). Conditions: Dose 3000 g/ha, after 3 weeks.
Type: in vivo
Method in brief: as §1
For `Oc1cc(C(F)(F)F)nnc1-c1ccccc1C(F)(F)F` [Compound 737], the “weed control effect (activity level), Veronica polita” value was 10.
With `Fc1ccc(-c2nnc(C(F)(F)F)cc2OCc2ccccc2)cc1` [Compound 1-209] the “weed control effect, Veronica polita (activity level)” value (shortened to “weed control effect, Veronica polita”) was 10.
`Oc1cc(C(F)(F)F)nnc1-c1cc2ccccc2s1` [Compound 594] was tested, and the “weed control effect (activity level), Veronica polita” value was 10.
For `Cc1n[nH]c(C)c1-c1nnc(C(F)(F)F)cc1O` [Compound 543], the “weed control effect (activity level), Veronica polita” value was 10.
In the case of `O=C(/C=C\c1ccccc1)Oc1cc(C(F)(F)F)nnc1-c1ccc(Cl)cc1` [Compound 1-96], the “weed control effect, Veronica polita” value is reported as 10.
For `CCCCCC/C(C)=N\Oc1cc(C(F)(F)F)nnc1-c1ccc(Cl)cc1Cl` [Compound 1-176], the “weed control effect, Veronica polita” value was 10.
With `Oc1cc(C(F)(F)F)nnc1-c1cnccc1I` [Compound 972] the “weed control effect (activity level), Veronica polita” value was 10.
With `N#Cc1ccc(-c2nnc(C(F)(F)F)cc2O)cn1` [Compound 983] the “weed control effect (activity level), Veronica polita” value was 10.
`CC(C)OC(=O)OC(C)Oc1cc(C(F)(F)F)nnc1-c1ccccc1` (stereo not drawn) [Compound 1-240] was tested, and the “weed control effect, Veronica polita” value was 10.
In the case of `O=C(Oc1cc(C(F)(F)F)nnc1-c1ccc(F)c(F)c1)c1ccccc1` [Compound 1-79], the “weed control effect, Veronica polita” value is reported as 10.

Same assay, conditions: dose 1000 g/ha, after 3 weeks
In the case of `Oc1cc(C(F)(F)F)nnc1-c1c(F)c(F)c(F)c(F)c1F` [Compound 55], the “weed control effect (activity level), Veronica polita” value is reported as 10.
`Oc1cc(C(F)(F)F)nnc1-c1c(F)cc(F)cc1F` [Compound 52] was tested, and the “weed control effect (activity level), Veronica polita” value was 10.
For `Oc1cc(C(F)(F)F)nnc1-c1ccc(I)cc1` [Compound 33], the “weed control effect (activity level), Veronica polita” value was 10.
With `CSc1cccc(-c2nnc(C(F)(F)F)cc2O)c1` [Compound 95] the “weed control effect (activity level), Veronica polita” value was 10.
For `Oc1cc(C(F)(F)F)nnc1-c1cccc(Br)c1` [Compound 31], the “weed control effect (activity level), Veronica polita” value was 10.

Same assay, conditions: dose 2000 g/ha, after 3 weeks
`N#Cc1ccc(-c2nnc(C(F)(F)F)cc2O)cn1` [Compound 212] was tested, and the “weed control effect (activity level), Veronica polita” value was 10.
`Cc1ccc(-c2nnc(C(F)(F)F)cc2O)c(C)c1` [Compound 77] was tested, and the “weed control effect (activity level), Veronica polita” value was 10.
In the case of `Oc1cc(C(F)(F)F)nnc1-c1cc(OC(F)F)c(Cl)cc1Cl` [Compound 165], the “weed control effect (activity level), Veronica polita” value is reported as 10.
